Assays:
uninfected MT4 cells = assay type: cell-based; conditions: n=4 duplicate determinations, read-out: LC50 (the source's name)
Text: (§1) The anti-HIV activity of the compound of the invention can be determined in MT4 cells according to the following procedure. MT4 cells were infected with cell-free supernatant of HIVIIIB (previously frozen with known 50% tissue culture infectious dose (TCID50) at 0.003 multiplicity of infection (MOI) for one hour. After one hour infection, cells were washed twice to remove residual viruses, resuspended in culture media and seeded into 96-well tissue culture plates at 1×10^4 cells per well with various half-log dilutions of compounds. Uninfected cells are included as toxicity and cell controls. RPMI 1640 media (Gibco) with 10% fetal bovine serum were used as culture media. Various concentrations of human serum (Sigma) 50%, 25% and 12.5% were added to culture media resulting in final concentration of 60%, 35% and 22.5% total serum. All assay plates were incubated in 37 deg. cent. incubator for 5 days. MTT (sigma, 5 mg/ml stock in PBS) was added to all wells at 25 ul per well, incubate for 4 hours. 20% SDS with 0.02 N HCI in water was added at 50 ul per well to lyse cells. Plates incubated overnight for complete lyses were read on a microtitre plate reader at 570/650 nm wavelengths to determine cell optical density (O.D.). Raw data were analysed for percent inhibition by the following formula: O.D. test well−O.D. virus control×100 O.D. cell control−O.D. virus control The 50% effective concentration (EC50) was calculated by the median effect equation (Chou, 1975, Proc. Int. Cong. Pharmacol. 6th p. 619) to determine the efficacy of compound. The 50% lethal concentration (LC50) was calculated using uninfected MT4 cells.
(§2) Under these conditions, the following data were obtained (n=4 duplicate determinations: […]

HIVIIIB = assay: Anti-HIV activity in MT4 cells infected with HIVIIIB (MTT readout); assay type: cell-based; conditions: 0% plasma, 5 days, n=4 duplicate determinations
Text: as §1, §2

HIV protease = HIV protease (Human immunodeficiency virus type 1 group M subtype B, UniProt P04585); assay: Fluorogenic assay for screening inhibitors of HIV protease; assay type: biochemical; conditions: Inhibitor Concentration 0.5 nanomolar
Description: Fluorogenic Assay for Screening Inhibitors of HIV Protease
The inhibitory potency of the compound of the invention can be determined by the following method.
The compound of the invention is dissolved in DMSO and a small aliquot further diluted with DMSO to 100 times the final concentration desired for testing. The reaction is carried out in a 6×50 mm tube in a total volume of 300 microliters. The final concentrations of the components in the reaction buffer are: 125 mM sodium acetate, 1 M sodium chloride, 5 mM dithiothreitol, 0.5 mg/ml bovine serum albumin, 1.3 μM fluorogenic substrate, 2% (v/v) dimethylsulfoxide, pH 4.5. After addition of inhibitor, the reaction mixture is placed in the fluorometer cell holder and incubated at 30° C. for several minutes. The reaction is initiated by the addition of a small aliquot of cold HIV protease. The fluorescence intensity (excitation 340 nm, emmision 490 nM) is recorded as a function of time. The reaction rate is determined for the first six to eight minutes. The observed rate is directly proportional to the moles of substrate cleaved-per unit time. The percent inhibition is 100×(1−(rate in presence of inhibitor)/(rate in absence of inhibitor)).
Fluorogenic substrate: Dabcyl-Gaba-Ser-Gln-Asn-Tyr-Pro-lle-Val-Gln-EDANS wherein DABCYL=4-(4-dimethylamino-phenyl)azobenzoic acid, Gaba=γ-aminobutyric acid, and EDANS=5-((2-aminoethyl)amino)-naphthalene-1-sulfonic acid.

| Structure (SMILES) | CC50 (uninfected MT4 cells) | IC50 (HIVIIIB) | Percent Inhibition (HIV protease) |
| --- | --- | --- | --- |
| Cc1ccnc(C)c1OCC(=O)N[C@@H](Cc1ccccc1)[C@@H](O)C[C@H](Cc1ccccc1)NC(=O)[C@H](C(C)C)N1CCNC1=O [Example 15, (2S,3S,5S)-2-(2,4-Dimethyl-pyridin-3-oxy-acetyl)amino-3-hydroxy-5-(2S-(1-imidazolidin-2-onyl)-3-methyl-butanoyl)amino-1,6-diphenylhexane] | > 100000 nM | 0.119 µM | 48% |
| Cc1cccc(C)c1OCC(=O)N[C@@H](Cc1ccccc1)[C@@H](O)C[C@H](Cc1ccccc1)NC(=O)[C@H](C(C)C)N1CCCC1=O [Example 17C, (2S,3S,5S)-2-(2,6-Dimethylphenoxyacetyl)amino-3-hydroxy-5-(2S-(1-pyrrolidin-2-onyl)-3-methyl-butanoyl)amino-1,6-diphenylhexane] | 19000 nM | 0.051 µM | 87.2% |
| Cc1cccc(C)c1OCC(=O)N[C@@H](Cc1ccccc1)[C@@H](O)C[C@H](Cc1ccccc1)NC(=O)[C@H](C(C)C)N1C(=O)CCC1=O [Example 18C, (2S,3S,5S)-2-(2,6-Dimethylphenoxyacetyl)amino-3-hydroxy-5-(2S-(1-pyrrolidin-2,5-dionyl)-3-methyl-butanoyl)amino-1,6-diphenylhexane] | 19100 nM | 0.329 µM | 57.8% |
| Cc1cccc(C)c1OCC(=O)N[C@@H](Cc1ccccc1)[C@@H](O)C[C@H](Cc1ccccc1)NC(=O)[C@H](C(C)C)N1CCC(=O)NC1=O [Example 25E, (2S,3S,5S)-2-(2,6-Dimethylphenoxyacetyl)amino-3-hydroxy-5-[2S-(1-tetrahydro-pyrimid-2,4-dionyl)-3-methylbutanoyl]amino-1,6-diphenylhexane] | 22900 nM | 0.012 µM | 100% |
| Cc1cccc(C)c1OCC(=O)N[C@@H](Cc1ccccc1)[C@@H](O)C[C@H](Cc1ccccc1)NC(=O)[C@H](C(C)C)N1CCNNC1=O [Example 26H, (2S,3S,5S)-2-(2,6-Dimethylphenoxyacetyl)amino-3-hydroxy-5[2S-(4-aza-1-tetrahydro-pyrimid-2-onyl)-3-methyl-butanoyl]amino-1,6-diphenylhexane] | 33000 nM | 0.015 µM | 94.6% |
| Cc1cccc(C)c1OCC(=O)N[C@@H](Cc1ccccc1)[C@@H](O)C[C@H](NC(=O)[C@H](C(C)C)N1CCCNC1=O)C(C)C [Example 27D, (2S,3S,5S)-2-(2,6-Dimethylphenoxyacetyl)amino-3-hydroxy-5-[2S-(1-tetrahydro-pyrimid-2-onyl)-3-methylbutanoyl]amino-1-phenyl-6-methylheptane] | 56200 nM | 0.03 µM | 92.9% |
| Cc1cccc(C)c1OCC(=O)N[C@@H](Cc1ccccc1)[C@@H](O)C[C@H](NC(=O)[C@H](C(C)C)N1CCC(=O)NC1=O)C(C)C [Example 28, (2S,3S,5S)-2-(2,6-Dimethylphenoxyacetyl)amino-3-hydroxy-5-[2S-(1-tetrahydro-pyrimid-2,4-dionyl)-3-methylbutanoyl]amino-1-phenyl-6-methylheptane] | 72200 nM | 0.011 µM | 86.6% |
| Cc1cccc(C)c1OCC(=O)N[C@@H](Cc1ccccc1)[C@@H](O)C[C@H](Cc1ccccc1)NC(=O)[C@H](C(C)C)N1CCNC(=O)C1=O [Example 29C, (2S,3S,5S)-2-(2,6-Dimethylphenoxyacetyl)amino-3-hydroxy-5-[2S-(1-piperazin-2,3-dionyl)-3-methylbutanoyl]amino-1,6-diphenylhexane] | 56000 nM | 0.427 µM | 72.6% |
| Cc1cccc(C)c1OCC(=O)N[C@@H](Cc1ccccc1)[C@@H](O)C[C@H](Cc1ccccc1)NC(=O)[C@H](C(C)C)N1CC=NNC1=O [Example 30B, (2S,3S,5S)-2-(2,6-Dimethylphenoxyacetyl)amino-3-hydroxy-5[2S-(4-aza-4,5-dehydro-1-pyrimid-2-onyl)-3-methyl-butanoyl]amino-1,6-diphenylhexane] | 18000 nM | 0.003 µM | 91.0% |

Reference: US7279582B2, “Retroviral protease inhibiting compounds” (priority 1995, dated 2007)
